Biological target: T1, human PAD4 (Homo sapiens, UniProt Q9UM07)
T1 construct: human PAD4 (NM_012387), A2P663, was PCR amplified; His-SUMO (N, cleaved yes); made in house; host or cells: E. coli BL21(DE3)
Experiment: In vitro PAD4 BAEE biochemical assay
Conditions: human PAD4, BAEE substrate; 5 nM PAD4, 2 mM calcium chloride, 3 mM BAEE; geometric mean of multiple experiments
Summary of the method: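 Tag-free recombinant hPAD4 (5 nM), 2 mM CaCl2, 3 mM BAEE, 50 mM MOPS pH 7.6, 2 mM DTT; 30 min compound preincubation, 2 h reaction, all 25 °C. EDTA quench; ammonia read via o-phthalaldehyde amine coupling, 1 h.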

T1 sequence (Q9UM07 2-663): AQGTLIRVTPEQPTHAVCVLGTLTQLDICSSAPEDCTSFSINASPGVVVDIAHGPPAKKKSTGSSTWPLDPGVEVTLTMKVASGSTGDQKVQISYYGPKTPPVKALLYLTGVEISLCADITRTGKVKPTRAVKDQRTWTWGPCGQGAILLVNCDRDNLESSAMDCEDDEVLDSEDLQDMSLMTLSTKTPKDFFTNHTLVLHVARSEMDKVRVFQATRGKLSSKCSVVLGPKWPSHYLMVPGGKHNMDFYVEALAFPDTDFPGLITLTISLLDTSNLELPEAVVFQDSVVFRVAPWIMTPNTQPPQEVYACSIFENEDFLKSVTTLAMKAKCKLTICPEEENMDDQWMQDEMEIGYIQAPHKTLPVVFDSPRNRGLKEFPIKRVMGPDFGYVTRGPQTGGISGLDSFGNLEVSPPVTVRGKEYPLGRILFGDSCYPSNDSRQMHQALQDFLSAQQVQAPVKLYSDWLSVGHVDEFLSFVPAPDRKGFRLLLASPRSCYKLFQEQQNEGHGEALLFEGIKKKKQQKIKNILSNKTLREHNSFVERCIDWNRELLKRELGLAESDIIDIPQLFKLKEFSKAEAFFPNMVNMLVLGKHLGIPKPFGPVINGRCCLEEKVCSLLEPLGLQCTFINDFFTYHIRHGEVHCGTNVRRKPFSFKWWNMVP

First: CC(C)c1c(-c2cc3ccc(N(C(F)F)S(C)(=O)=O)nc3n2CC2CC2)nc2cc(C(=O)N3CCC[C@@H](N)C3)ccn12 [Example 433, ~{N}-[2-[7-[(3~{R})-3-aminopiperidine-1-carbonyl]-3-propan-2-ylimidazo[1,2-a]pyridin-2-yl]-1-(cyclopropylmethyl)pyrrolo [2,3-b]pyridin-6-yl]-~{N}-(difluoromethyl) methanesulfonamide]
Second: CC1(c2c(-c3cc4ccc(N(C(F)F)S(C)(=O)=O)nc4n3CC3CC3)nc3cc(C(=O)N4CCC[C@@H](N)C4)ccn23)CC1 [Example 435, ~{N}-[2-[7-[(3~{R})-3-aminopiperidine-1-carbonyl]-3-(1-methylcyclopropyl)imidazo[1,2-a]pyridin-2-yl]-1-(cyclopropylmethyl)pyrrolo[2,3-b]pyridin-6-yl]-~{N}-(difluoromethyl) methanesulfonamide]
The IC50 of the first is 1.6-fold lower: 7.04 µM for the first, 11.3 µM for the second.

First: CC(C)c1c(-c2cc3ccc(N(C(F)F)S(C)(=O)=O)nc3n2CC2CC2)nc2cc(C(=O)N3[C@@H]4CC[C@@H](N)[C@H]3CC4)ccn12 [Example 434]
Second: CS(=O)(=O)N(c1ccc2cc(-c3nc4cc(C(=O)N5[C@@H]6CC[C@@H](N)[C@H]5CC6)ccn4c3CC3CC3)n(CC3CC3)c2n1)C(F)F [Example 436, ~{N}-[2-[7-[(1~{R},2~{R}, 5~{R})-2-amino-8-azabicyclo[3.2.1]octane-8-carbonyl]-3-(cyclopropylmethyl)imidazo [1,2-a]pyridin-2-yl]-1-(cyclopropylmethyl)pyrrolo [2,3-b]pyridin-6-yl]-~{N}-(difluoromethyl) methanesulfonamide]
The IC50 of the first is 17-fold higher: 3.41 µM for the first, 0.202 µM for the second. The second is the more potent here.

Compared with CC(=O)NCc1c(-c2cc3ccc(N(C(F)F)S(C)(=O)=O)nc3n2CC2CC2)nc2cc(C(=O)N3CCC[C@@H](N)C3)ccn12 [Example 437, ~{N}-[[7-[(3~{R})-3-aminopiperidine-1-carbonyl]-2-[1-(cyclopropylmethyl)-6-[difluoromethyl (methylsulfonyl)amino]pyrrolo[2,3-b]pyridin-2-yl]imidazo[1,2-a]pyridin-3-yl]methyl]acetamide], CS(=O)(=O)N(c1ccc2cc(-c3nc4cc(C(=O)N5CCC[C@@H](N)C5)ccn4c3CC3CC3)n(CC3CC3)c2n1)C(F)F [Example 438, ~{N}-[2-[7-[(3~{R})-3-aminopiperidine-1-carbonyl]-3-(cyclopropylmethyl)imidazo [1,2-a]pyridin-2-yl]-1-(cyclopropylmethyl)pyrrolo [2,3-b]pyridin-6-yl]-~{N}-(difluoromethyl) methanesulfonamide] is 2.8-fold lower in IC50: 0.55 µM for the first, 0.194 µM for the second.

First: COc1cc(C(=O)N2[C@H]3CC[C@@H]2[C@H](N)C3)cc2nc(-c3cc4ccc(N5[C@@H](C)COCS5(=O)=O)nc4n3CC3CC3)c(C)n12 [Example 439, [(1~{R},2~{R},4~{S})-2-amino-7-azabicyclo [2.2.1]heptan-7-yl]-[2-[1-(cyclopropylmethyl)-6-[(5~{S})-5-methyl-3,3-dioxo-1,3,4-oxathiazinan-4-yl]pyrrolo [2,3-b]pyridin-2-yl]-5-methoxy-3-methylimidazo [1,2-a]pyridin-7-yl] methanone]
Second: COc1cc(C(=O)N2[C@H]3CC[C@@H]2[C@H](N)C3)cc2nc(-c3cc4ccc(N5C(C)CCCCS5(=O)=O)nc4n3CC3CC3)c(C)n12 (stereo partly drawn) [Example 445, [(1~{R},2~{R},4~{S})-2-amino-7-azabicyclo[2.2.1]heptan-7-yl]-[2-[1-(cyclopropylmethyl)-6-(3-methyl-1,1-dioxothiazepan-2-yl)pyrrolo [2,3-b]pyridin-2-yl]-5-methoxy-3-methylimidazo[1,2-a]pyridin-7-yl]methanone]
The IC50 of the first is 3.3-fold lower: 0.0243 µM for the first, 0.0806 µM for the second. The first is the more potent here.

First: COc1cc(C(=O)N2[C@H]3CC[C@@H]2[C@H](N)C3)cc2nc(-c3cc4ccc(N5C[C@@H](C)OCS5(=O)=O)nc4n3CC3CC3)c(C)n12 [Example 440, [(1~{R},2~{R},4~{S})-2-amino-7-azabicyclo [2.2.1]heptan-7-yl]-[2-[1-(cyclopropylmethyl)-6-[(6~{R})-6-methyl-3,3-dioxo-1,3,4-oxathiazinan-4-yl]pyrrolo [2,3-b]pyridin-2-yl]-5-methoxy-3-methylimidazo [1,2-a]pyridin-7-yl] methanone]
Second: COc1cc(C(=O)N2[C@H]3CC[C@@H]2[C@H](N)C3)cc2nc(-c3cc4ccc(N5C[C@H](C)OCS5(=O)=O)nc4n3CC3CC3)c(C)n12 [Example 441, [(1~{R},2~{R},4~{S})-2-amino-7-azabicyclo [2.2.1]heptan-7-yl]-[2-[1-(cyclopropylmethyl)-6-[(6~{S})-6-methyl-3,3-dioxo-1,3,4-oxathiazinan-4-yl]pyrrolo[2,3-b]pyridin-2-yl]-5-methoxy-3-methylimidazo[1,2-a]pyridin-7-yl]methanone]
The IC50 of the first is 2.8-fold higher: 0.207 µM for the first, 0.0731 µM for the second. The second is the more potent here.

COc1cc(C(=O)N2[C@H]3CC[C@@H]2[C@H](N)C3)cc2nc(-c3cc4ccc(N5CCN(Cc6cccnc6)CCS5(=O)=O)nc4n3CC3CC3)c(C)n12 [Example 442, [(1~{R},2~{R},4~{S})-2-amino-7-azabicyclo [2.2.1]heptan-7-yl]-[2-[1-(cyclopropylmethyl)-6-[1,1-dioxo-5-(pyridin-3-ylmethyl)-1,2,5-thiadiazepan-2-yl]pyrrolo [2,3-b]pyridin-2-yl]-5-methoxy-3-methylimidazo [1,2-a]pyridin-7-yl] methanone] and COc1cc(C(=O)N2[C@H]3CC[C@@H]2[C@H](N)C3)cc2nc(-c3cc4ccc(N5CCN(C)CCS5(=O)=O)nc4n3CC3CC3)c(C)n12 [Example 443, [(1~{R},2~{R},4~{S})-2-amino-7-azabicyclo [2.2.1]heptan-7-yl]-[2-[1-(cyclopropylmethyl)-6-(5-methyl-1,1-dioxo-1,2,5-thiadiazepan-2-yl)pyrrolo[2,3-b]pyridin-2-yl]-5-methoxy-3-methylimidazo [1,2-a]pyridin-7-yl] methanone] are within 1.5-fold of each other in IC50: 0.0409 µM for the first, 0.0344 µM for the second.

Compared with COc1cc(C(=O)N2[C@H]3CC[C@@H]2[C@H](N)C3)cc2nc(-c3cc4ccc(N5CCN(c6ccccc6)CCS5(=O)=O)nc4n3CC3CC3)c(C)n12 [Example 444, [(1~{R},2~{R},4~{S})-2-amino-7-azabicyclo [2.2.1]heptan-7-yl]-[2-[1-(cyclopropylmethyl)-6-(1,1-dioxo-5-phenyl-1,2,5-thiadiazepan-2-yl)pyrrolo [2,3-b]pyridin-2-yl]-5-methoxy-3-methylimidazo [1,2-a]pyridin-7-yl] methanone], CC[C@H]1CCCS(=O)(=O)N1c1ccc2cc(-c3nc4cc(C(=O)N5[C@H]6CC[C@@H]5[C@H](N)C6)cc(OC)n4c3C)n(CC3CC3)c2n1 [Example 446, [(1~{R},2~{R},4~{S})-2-amino-7-azabicyclo [2.2.1]heptan-7-yl]-[2-[1-(cyclopropylmethyl)-6-[(3~{S})-3-ethyl-1,1-dioxothiazinan-2-yl]pyrrolo[2,3-b]pyridin-2-yl]-5-methoxy-3-methylimidazo[1,2-a]pyridin-7-yl]methanone] is 1.8-fold lower in IC50: 0.13 µM for the first, 0.0733 µM for the second.

With COc1cc(C(=O)N2[C@H]3CC[C@@H]2[C@H](N)C3)cc2nc(-c3cc4ccc(N5[C@@H](C(F)(F)F)CCCS5(=O)=O)nc4n3CC3CC3)c(C)n12 [Example 447, [(1~{R},2~{R},4~{S})-2-amino-7-azabicyclo [2.2.1]heptan-7-yl]-[2-[1-(cyclopropylmethyl)-6-[(3~{R})-1,1-dioxo-3-(trifluoromethyl)thiazinan-2-yl]pyrrolo[2,3-b]pyridin-2-yl]-5-methoxy-3-methylimidazo[1,2-a]pyridin-7-yl]methanone] the IC50 was 0.187 µM.
